The text below walks through data of patent US11903935B2, “Inhibitors of SARM1 NADase activity and uses thereof” (Washington University, priority 2016, dated 2024).

Experiment [1] deals with T1, SARM1 TIR (Homo sapiens (Human), UniProt Q6SZW1). The experiment can be described thus: NADase assay with purified bacterial hSARM1-TIR, enzyme inhibition studies. The following applies: 1 mM in the reaction mixture, 5 min. It counts as biochemical.
Target sequence in this assay (Q6SZW1 other isoform, or with tags, fused parts or gaps): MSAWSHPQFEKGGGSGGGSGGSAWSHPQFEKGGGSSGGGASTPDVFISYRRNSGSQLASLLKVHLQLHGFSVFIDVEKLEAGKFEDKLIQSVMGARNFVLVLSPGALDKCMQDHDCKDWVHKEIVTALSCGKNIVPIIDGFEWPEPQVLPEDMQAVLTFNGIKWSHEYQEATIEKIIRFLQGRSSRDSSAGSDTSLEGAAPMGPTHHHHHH
Description: Ten microliters of beads incubated with the indicated cell lysate were incubated with 5 μM NAD in reaction buffer (92.4 mM NaCl and 0.64×PBS). Reactions were carried out at 25° C. for the indicated amount of time and stopped by addition of 1M of perchloric acid (HClO4) and placing the tube on ice. NAD+ metabolites were extracted using HClO4/K2CO3 method and quantified by HPLC (see HPLC for metabolite measurement).
Metabolites were isolated from enzyme reaction mixture by extracting with 1M HClO4, then neutralized with 3M K2CO3, and followed by separation by centrifugation. The supernatant (90 μL) containing the extracted metabolites was mixed with 0.5M Potassium Phosphate buffer (10 μL) and metabolites were analyzed by HPLC (Nexera X2) with Kinetex (100×3 mm, 2.6 μm; Phenomenex) column. […] The levels for each compound in each experimental sample were normalized to the 0 min time point that was analyzed concurrently.
The reaction was stopped after 5 min and NAD+ metabolites were extracted by the perchloric acid method and measured by HPLC as indicated above.
The target of another experiment is SARM1 SAM-TIR lysate (Homo sapiens (Human), UniProt Q6SZW1). As to the kind of experiment: Luminescence-based NAD+ Glo (NAD+ cycling) assay with SAM-TIR lysate. The class given is biochemical. The text has this: Luminescence-based assay. This assay can complement the results obtained by HPLC, and can permit a higher throughput of compound library screening than is possible with HPLC methods. This assay is an adaptation of the NAD+/NADH-GLO™ assay (Promega G9071, Promega Corporation, Madison, WI). In this assay, NAD+ cycling enzymes convert NAD+ into NADH. In the presence of NADH, the reductase enzymatically converts a pro-luciferin reductase substrate into luciferin. Luciferin is detected using ULTRA-GLO™ rLuciferase, and the chemiluminescence intensity is proportional to the amount of NAD+ and NADH in the sample. Under the present assay conditions, the amount of NAD+ and NADH present in the lysate is undetectable with this assay, precluding any endogenous contribution to the final NAD+ detected. The assay was set up as follows: 2 μl candidate inhibitor (final concentration 1 μM, 2% DMSO), 0.07 μg lysate (2 μl), and 2 μl of 400 nM NAD+. The reaction was incubated at 37° C. for 60 min, then 6 μl NAD+/NADH-GLO™ detection reagent was added. After 30 min at room temperature, the luminescent signals were quantified using a CYTATION™ 5 imaging reader (BIOTEK®).

Experiment [2] has as its target T1, SARM1 TIR. The experiment can be described thus: SARM1 TIR-based assay (bacterially expressed, tagged SARM1 TIR fragment on beads). The following applies: compound at 5 μM, 5 μM NAD+. The class given is biochemical. The text has this:
The present Example describes a SARM1 TIR-based Assay. This assay is similar to the assay described in Example 1, but allows for the identification and/or characterization of compounds that directly interact with the TIR domain, whereas the assay described in Example 1 can also identify compounds that disrupt SAM domain interactions. This assay makes use of the bacterial expression of a tagged version of the SARM1 TIR fragment that can be affinity purified. Displaying this artificial SARM1 TIR domain on a solid surface (i.e. affinity beads) generates an active NAD+ cleavage enzyme.
The TIR domain of SARM1 was tagged with a tandem STREP-TAG® at the N-terminus, and a polyhistidine tag at the C-terminus, and was cloned into a pET30a+ plasmid. The construct was then transformed into SHuffle® T7 Express Competent E. coli (New England BioLabs, Ipswich, MA) and single colonies were grown overnight. The next day, cultures were diluted in LB media, grown at 30° C. until they reached A600=0.4-0.8, when IPTG (0.5 mM final concentration) was added. The bacteria were grown for an additional 4 h, pelleted by centrifugation, washed with PBS and stored at −80° C. For protein purification, the frozen bacterial pellet was thawed on ice, resuspended in binding buffer (without protease inhibitors) and incubated with 100 μg/mL lysozyme for 15 min on ice. Protease inhibitor cocktail was then added and the cells were lysed by sonication.
The SARM1 TIR protein was first purified by Strep Tag affinity methods where bacterial lysates were incubated with […] (STREP-TACTIN®, IBA GmBH, Gottingen Germany) type 3 XT beads suspension (IBA Lifesciences) for 30 min. The beads were then washed three times with binding buffer, and bound proteins were eluted from MagStrep type 3 XT beads with 22.5 mM biotin for 25 min. Supernatant containing the eluted protein was separated from MagStrep beads, and incubated with 10 μL Co2+ DYNABEAD® (ThermoFisher Scientific, Waltham, MA) suspension for 30 min to bind SARM1-TIR proteins via the His tag. The beads were then washed at least two times with binding buffer and resuspended in 100 μL of binding buffer for NADase assay.
Ten microliters of purified SARM1-TIR laden beads were incubated with 5 μM NAD+ in reaction buffer (92.4 mM NaCl and 0.64×PBS). Reactions were carried out at 25° C. for the indicated amount of time and stopped by addition of 1M of perchloric acid (HClO4) and placing the tube on ice. NAD+ metabolites were extracted using HClO4/K2CO3 method and quantified by HPLC (see metabolite measurement below). For LC-MS/MS analysis, the extraction was performed using 50% methanol in distilled water and chloroform (see LC-MS/MS metabolite measurement below). […] Select potent inhibitors (622608, 622689) identified from SARM1 SAM-TIR lysate screen were added to the reaction at 5 μM. NAD normalized to control at 0 min.
Metabolites were isolated from enzyme reaction mixture by extracting with 1M HClO4, then neutralized with 3M K2CO3, and followed by separation by centrifugation. The supernatant (90 μL) containing the extracted metabolites was mixed with 0.5M Potassium Phosphate buffer (10 μL) and metabolites were analyzed by HPLC (Nexera X2) with KINETEX® (100×3 mm, 2.6 μm; PHENOMENEX®) column and metabolites are monitored with absorbance at 254 nm. Internal standards for NAD+, Nicotinamide (Nam), ADP Ribose (ADPR) were used to generate standard curves for quantification of the respective compounds. The levels for each compound in each experimental sample was normalized to the 0 min time point that was analyzed concurrently.
These analogs were tested using an assay that makes use of a bacterially-expressed tagged version of the SARM1 TIR fragment, as described in Example 2. Displaying this artificial SARM1 TIR domain on a solid surface (i.e. affinity beads) generates an active NAD+ cleavage enzyme.

The next experiment has as its system DRG neurons. As to the kind of experiment: In vitro axon degeneration assay after axotomy (degeneration index). The class given is cell-based, mouse. How it is done: Mouse dorsal root ganglion (DRG) were dissected from embryonic days 13.5 CD1 mouse embryo (˜50 ganglion per embryo) and incubated with 0.05% Trypsin solution containing 0.02% EDTA (Gibco) at 37° C. for 15 min. Then cell suspensions are triturated by gentle pipetting and washed 3 times with DRG growth medium (Neurobasal medium (Gibco) containing 2% B27 (Invitrogen), 100 ng/ml 2.5S NGF (Harlan Bioproduts), 1 μM uridine (Sigma), 1 μM 5-fluoro-2′-deoxyuridine (Sigma), penicillin, and streptomycin). Cells were suspended in DRG growth medium at a ratio of 100 μl medium/50 DRGs. The cell density of these suspensions was ˜7×10^6 cells/ml. Cell suspension (10 μl) was placed in the center of the well using 24-well tissue culture plates (Corning) coated with poly-D-Lysine (0.1 mg/ml; Sigma) and laminin (3 μg/ml; Invitrogen). […]
Axonal degeneration was induced by axotomy or by the addition of vincristine (0.04 μM) using DRG drop cultures in 96 well at DIV 6. […] Axon degeneration was quantified using degeneration index (DI) calculated using ImageJ (NIH, Sasaki et al., 2009, J. Neurosci., […]: 5525-5535). […] The DI was calculated from axon images from the same fields before (0 hour) and after (9-72 hours) axotomy. […] Axon degeneration was monitored by imaging axons before injury, and various time points after axotomy.

Experiment [3] addresses T1, SARM1 TIR. As to the kind of experiment: In vitro NADase assay with SARM1-TIR complexes purified from NRK1-HEK293T cells, substrate specificity. It counts as biochemical. How it is done: Approximately 10 million cells were plated and transfected the next day with 15 μg of StrepTag SARM1-TIR construct DNA using X-tremeGENE™ 9 reagent (Sigma-Aldrich, St. Louis MO). […] After 2 days the cells were harvested and lysed by sonication in binding buffer (50 mM Sodium Phosphate buffer pH 8, 300 mM Sodium Chloride, 0.01% Tween-20, protease inhibitor tablets). For single step affinity purification, the whole cell lysates were incubated with 20 μL MagStrep (Strep-Tactin) type 3 XT beads suspension (IBA Lifesciences) for 30 min. The beads were then washed three times with binding buffer and resuspended in 100 μL of binding buffer for enzymatic assays and other downstream applications.
Ten microliters of beads incubated with the indicated cell lysate were incubated with 5 μM NAD in reaction buffer (92.4 mM NaCl and 0.64×PBS). […] NAD+ metabolites were extracted using HClO4/K2CO3 method and quantified by HPLC (see HPLC for metabolite measurement). […]
Metabolites were isolated from enzyme reaction mixture by extracting with 1M HClO4, then neutralized with 3M K2CO3, and followed by separation by centrifugation. The supernatant (90 μL) containing the extracted metabolites was mixed with 0.5M Potassium Phosphate buffer (10 μL) and metabolites were analyzed by HPLC (Nexera X2) with Kinetex (100×3 mm, 2.6 μm; Phenomenex) column. […]
Target sequence in this assay (Q6SZW1 561-724): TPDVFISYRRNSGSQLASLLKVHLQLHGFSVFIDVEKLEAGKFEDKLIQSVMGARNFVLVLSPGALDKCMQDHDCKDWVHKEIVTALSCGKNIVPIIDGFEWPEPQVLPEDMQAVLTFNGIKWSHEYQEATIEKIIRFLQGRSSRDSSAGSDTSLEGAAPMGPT

Broadly, the IC50 is the concentration needed to halve the response being measured. Read a high IC50 as weaker potency.

SARM1 SAM-TIR lysate, sequence (Q6SZW1 other isoform, or with tags, fused parts or gaps): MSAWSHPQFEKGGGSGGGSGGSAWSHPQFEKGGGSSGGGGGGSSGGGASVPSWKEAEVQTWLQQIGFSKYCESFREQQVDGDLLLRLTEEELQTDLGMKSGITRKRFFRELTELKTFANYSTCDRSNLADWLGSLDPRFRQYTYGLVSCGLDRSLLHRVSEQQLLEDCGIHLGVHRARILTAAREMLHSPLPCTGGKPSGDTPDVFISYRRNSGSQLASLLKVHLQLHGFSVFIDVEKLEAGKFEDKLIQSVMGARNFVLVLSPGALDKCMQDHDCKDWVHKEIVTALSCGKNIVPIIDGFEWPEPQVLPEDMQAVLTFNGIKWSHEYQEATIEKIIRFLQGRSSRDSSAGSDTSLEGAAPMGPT

As to `Nc1ncnc2c1ncn2[C@@H]1O[C@H](COP(=O)(O)OP(=O)(O)OC[C@H]2OC(O)[C@H](O)[C@@H]2O)[C@@H](O)[C@H]1O` (stereo partly drawn) [ADPR, ADP Ribose], the “inhibition of SARM1-TIR NADase activity” value at SARM1 TIR [1] was “did not inhibit”.

At SARM1 SAM-TIR lysate, `Br.CN(C)c1nc(=NCc2ccco2)ss1` [NSC622608] registered a half-maximal inhibitory concentration (IC50) of approximately 150 nM. Besides, the “inhibition of NADase activity of purified SARM1 TIR” value against SARM1 TIR [2] is given as “inhibit NADase activity of purified SARM1 TIR”. Further, in the experiment with DRG neurons (0.05 to 5 μM, added 30 min before axotomy), the “dose dependence of inhibition of axon degeneration” value is on record as “dose dependent inhibition of axon degeneration”. Also, the “protection from axon degeneration (degeneration index)” value in the experiment on DRG neurons (24 h after axotomy) is given as “significant protection”.

Regarding `Nc1ncnc2c1ncn2[C@@H]1O[C@H](COP(=O)(O)OP(=O)(O)OC[C@H]2O[C@@H]([n+]3cccc(C(=O)O)c3)[C@H](O)[C@@H]2O)[C@@H](O)[C@H]1O` [NaAD, Nicotinic Acid Adenine Dinucleotide], on SARM1 TIR [3], the “degradation by wild type SARM1-TIR complexes (substrate specificity)” value is given as “do not degrade”.
